{
  "source": "paper PMC9220351",
  "about": "“Evaluation of a Conformationally Constrained Indole Carboxamide as a Potential Efflux Pump Inhibitor in Pseudomonas aeruginosa” (Antibiotics, 2022)",
  "test_system": "34 MDR P. aeruginosa clinical isolates (CDC & FDA AR Isolate Bank)",
  "assay": "microbe, parasite or virus in culture",
  "format": "cell-based, Pseudomonas aeruginosa",
  "details": "for Levofloxacin MIC fold difference: + labelled EPI […] (TXA09155 head: 50 µg/mL); for Levofloxacin MIC: alone or + labelled EPI […] (TXA09155 head: 50 µg/mL)",
  "description": "P. aeruginosa ATCC 27853 was obtained from the American Type Culture Collection (ATCC; Manassas, VA, USA). P. aeruginosa multidrug-resistant isolates were obtained from the CDC and FDA Antibiotic Resistance Isolate Bank (Atlanta, GA, USA). P. aeruginosa DA7232 (gyrA-T83I, parC-S80L) was a kind gift from Prof. Dan I. Andersson, Uppsala University, Uppsala, Sweden, and has been characterized elsewhere. P. aeruginosa strains K767 (WT), K1455 (mexAB-oprM overexpressed), K2415 (mexXY-oprM overexpressed), and K3698 (oprM∆) were obtained from Prof. Keith Poole, Queen’s University, Kingston, Ontario, Canada and have been characterized elsewhere. Bacterial cells were grown in cation-adjusted Mueller Hinton (CAMH) media, brain heart infusion broth (BHI), or tryptic soy agar (TSA) plates were all obtained from Becton, Dickinson, and Company (BD; Franklin Lakes, NJ, USA). […] Azithromycin was purchased from Tokyo Chemical Industry (Portland, OR, USA). […] Ethidium bromide (EtBr) and glucose were purchased from VWR (Radnor, PA, USA). MC-04,124 and TXA01182 were synthesized at TAXIS Pharmaceuticals. Carbonyl cyanide 3-chlorophenylhydrazone (CCCP) was purchased from Enzo Life Sciences (Farmingdale, NY, USA). DiOC2 (3) and propidium iodide were obtained from Thermo Fisher Scientific (Waltham, MA, USA).\nMIC assays were performed as described previously.",
  "data": [
    {"smiles": "NCCC[C@H](N)CNC(=O)c1cc2ccc(-c3ccc(F)cc3)cc2[nH]1", "note": "[TXA01182]", "values": [
      {"measurement": "Levofloxacin MIC fold difference", "setting": "strain AR-0229", "value": 8},
      {"measurement": "Levofloxacin MIC", "setting": "strain AR-0229", "value": 8, "unit": "µg/mL"},
      {"measurement": "Levofloxacin MIC fold difference", "setting": "strain AR-0230", "value": 4},
      {"measurement": "Levofloxacin MIC", "setting": "strain AR-0230", "value": 16, "unit": "µg/mL"},
      {"measurement": "Levofloxacin MIC fold difference", "setting": "strain AR-0231", "value": 2},
      {"measurement": "Levofloxacin MIC", "setting": "strain AR-0231", "value": 32, "unit": "µg/mL"},
      {"measurement": "Levofloxacin MIC fold difference", "setting": "strain AR-0232", "value": 8},
      {"measurement": "Levofloxacin MIC", "setting": "strain AR-0232", "value": 1, "unit": "µg/mL"},
      {"measurement": "Levofloxacin MIC fold difference", "setting": "strain AR-0233", "value": 8},
      {"measurement": "Levofloxacin MIC", "setting": "strain AR-0233", "value": 0.5, "unit": "µg/mL"},
      {"measurement": "Levofloxacin MIC fold difference", "setting": "strain AR-0234", "value": 8},
      {"measurement": "Levofloxacin MIC", "setting": "strain AR-0234", "value": 1, "unit": "µg/mL"},
      {"measurement": "Levofloxacin MIC fold difference", "setting": "strain AR-0236", "value": 4},
      {"measurement": "Levofloxacin MIC", "setting": "strain AR-0236", "value": 8, "unit": "µg/mL"},
      {"measurement": "Levofloxacin MIC fold difference", "setting": "strain AR-0239", "value": 8},
      {"measurement": "Levofloxacin MIC", "setting": "strain AR-0239", "value": 8, "unit": "µg/mL"},
      {"measurement": "Levofloxacin MIC fold difference", "setting": "strain AR-0240", "value": 8},
      {"measurement": "Levofloxacin MIC", "setting": "strain AR-0240", "value": 16, "unit": "µg/mL"},
      {"measurement": "Levofloxacin MIC fold difference", "setting": "strain AR-0241", "value": 4},
      {"measurement": "Levofloxacin MIC", "setting": "strain AR-0241", "value": 16, "unit": "µg/mL"},
      {"measurement": "Levofloxacin MIC fold difference", "setting": "strain AR-0242", "value": 8},
      {"measurement": "Levofloxacin MIC", "setting": "strain AR-0242", "value": 2, "unit": "µg/mL"},
      {"measurement": "Levofloxacin MIC fold difference", "setting": "strain AR-0244", "value": 16},
      {"measurement": "Levofloxacin MIC", "setting": "strain AR-0244", "value": 8, "unit": "µg/mL"},
      {"measurement": "Levofloxacin MIC fold difference", "setting": "strain AR-0245", "value": 4},
      {"measurement": "Levofloxacin MIC", "setting": "strain AR-0245", "value": 32, "unit": "µg/mL"},
      {"measurement": "Levofloxacin MIC fold difference", "setting": "strain AR-0246", "value": 4},
      {"measurement": "Levofloxacin MIC", "setting": "strain AR-0246", "value": 16, "unit": "µg/mL"},
      {"measurement": "Levofloxacin MIC fold difference", "setting": "strain AR-0247", "value": 64},
      {"measurement": "Levofloxacin MIC", "setting": "strain AR-0247", "value": 0.031, "unit": "µg/mL"},
      {"measurement": "Levofloxacin MIC fold difference", "setting": "strain AR-0248", "value": 8},
      {"measurement": "Levofloxacin MIC", "setting": "strain AR-0248", "value": 2, "unit": "µg/mL"},
      {"measurement": "Levofloxacin MIC fold difference", "setting": "strain AR-0249", "value": 8},
      {"measurement": "Levofloxacin MIC", "setting": "strain AR-0249", "value": 8, "unit": "µg/mL"},
      {"measurement": "Levofloxacin MIC fold difference", "setting": "strain AR-0250", "value": 4},
      {"measurement": "Levofloxacin MIC", "setting": "strain AR-0250", "value": 16, "unit": "µg/mL"},
      {"measurement": "Levofloxacin MIC fold difference", "setting": "strain AR-0252", "value": 16},
      {"measurement": "Levofloxacin MIC", "setting": "strain AR-0252", "value": 2, "unit": "µg/mL"},
      {"measurement": "Levofloxacin MIC fold difference", "setting": "strain AR-0253", "value": 16},
      {"measurement": "Levofloxacin MIC", "setting": "strain AR-0253", "value": 0.125, "unit": "µg/mL"},
      {"measurement": "Levofloxacin MIC fold difference", "setting": "strain AR-0256", "value": 8},
      {"measurement": "Levofloxacin MIC", "setting": "strain AR-0256", "value": 0.062, "unit": "µg/mL"},
      {"measurement": "Levofloxacin MIC fold difference", "setting": "strain AR-0258", "value": 4},
      {"measurement": "Levofloxacin MIC", "setting": "strain AR-0258", "value": 0.125, "unit": "µg/mL"},
      {"measurement": "Levofloxacin MIC fold difference", "setting": "strain AR-0259", "value": 1},
      {"measurement": "Levofloxacin MIC", "setting": "strain AR-0259", "value": 0.125, "unit": "µg/mL"},
      {"measurement": "Levofloxacin MIC fold difference", "setting": "strain AR-0260", "value": 4},
      {"measurement": "Levofloxacin MIC", "setting": "strain AR-0260", "value": 16, "unit": "µg/mL"},
      {"measurement": "Levofloxacin MIC fold difference", "setting": "strain AR-0261", "value": 16},
      {"measurement": "Levofloxacin MIC", "setting": "strain AR-0261", "value": 0.5, "unit": "µg/mL"},
      {"measurement": "Levofloxacin MIC fold difference", "setting": "strain AR-0262", "value": 16},
      {"measurement": "Levofloxacin MIC", "setting": "strain AR-0262", "value": 0.25, "unit": "µg/mL"},
      {"measurement": "Levofloxacin MIC fold difference", "setting": "strain AR-0264", "value": 8},
      {"measurement": "Levofloxacin MIC", "setting": "strain AR-0264", "value": 4, "unit": "µg/mL"},
      {"measurement": "Levofloxacin MIC fold difference", "setting": "strain AR-0265", "value": 8},
      {"measurement": "Levofloxacin MIC", "setting": "strain AR-0265", "value": 8, "unit": "µg/mL"},
      {"measurement": "Levofloxacin MIC fold difference", "setting": "strain AR-0266", "value": 4},
      {"measurement": "Levofloxacin MIC", "setting": "strain AR-0266", "value": 8, "unit": "µg/mL"},
      {"measurement": "Levofloxacin MIC fold difference", "setting": "strain AR-0267", "value": 16},
      {"measurement": "Levofloxacin MIC", "setting": "strain AR-0267", "value": 2, "unit": "µg/mL"},
      {"measurement": "Levofloxacin MIC fold difference", "setting": "strain AR-0269", "value": 8},
      {"measurement": "Levofloxacin MIC", "setting": "strain AR-0269", "value": 4, "unit": "µg/mL"},
      {"measurement": "Levofloxacin MIC fold difference", "setting": "strain AR-0270", "value": 16},
      {"measurement": "Levofloxacin MIC", "setting": "strain AR-0270", "value": 2, "unit": "µg/mL"},
      {"measurement": "Levofloxacin MIC fold difference", "setting": "strain AR-0271", "value": 4},
      {"measurement": "Levofloxacin MIC", "setting": "strain AR-0271", "value": 8, "unit": "µg/mL"},
      {"measurement": "Levofloxacin MIC fold difference", "setting": "strain AR-0272", "value": 4},
      {"measurement": "Levofloxacin MIC", "setting": "strain AR-0272", "value": 4, "unit": "µg/mL"}
    ]}
  ]
}
